Assay results reported in ChEMBL document CHEMBL1130442, “Tetrazole is an effective Sn-3 phosphate replacement in substrate analog inhibitors of 14 kDa phospholipase A2” (Bioorg Med Chem Lett, 1997).

Assays:
Monocyte [1] = assay: Compound was tested for inhibition of LTC4 release in the human monocytic cell line at 30 uM; format: functional
[2] = target: T1, Polyunsaturated fatty acid 5-lipoxygenase (Homo sapiens) (UniProt P09917); assay: Compound was tested for inhibition of 5-lipoxygenase at 50 uM; NI means no inhibition was observed
T1 sequence (whole entry): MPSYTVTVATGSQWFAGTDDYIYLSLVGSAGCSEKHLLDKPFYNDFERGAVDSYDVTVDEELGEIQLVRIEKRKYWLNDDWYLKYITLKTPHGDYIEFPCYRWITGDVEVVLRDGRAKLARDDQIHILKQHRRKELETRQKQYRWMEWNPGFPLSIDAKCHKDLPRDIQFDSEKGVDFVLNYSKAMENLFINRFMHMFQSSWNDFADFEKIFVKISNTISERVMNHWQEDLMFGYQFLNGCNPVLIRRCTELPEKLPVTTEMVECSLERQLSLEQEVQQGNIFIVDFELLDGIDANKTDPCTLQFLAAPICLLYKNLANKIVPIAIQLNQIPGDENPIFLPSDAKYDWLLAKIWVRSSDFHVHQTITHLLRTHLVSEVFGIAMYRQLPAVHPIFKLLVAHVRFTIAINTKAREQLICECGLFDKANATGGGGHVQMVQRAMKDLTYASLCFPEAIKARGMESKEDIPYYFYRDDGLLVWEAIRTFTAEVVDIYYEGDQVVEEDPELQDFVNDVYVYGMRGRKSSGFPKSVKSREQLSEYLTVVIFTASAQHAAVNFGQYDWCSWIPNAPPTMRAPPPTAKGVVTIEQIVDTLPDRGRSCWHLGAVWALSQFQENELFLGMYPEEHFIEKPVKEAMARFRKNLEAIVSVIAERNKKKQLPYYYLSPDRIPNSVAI

Monocyte [3] = assay: Compound was tested for inhibition of LTC4 release in the human monocytic cell line; NI means no inhibition observed; format: functional, cell-based

Row | inhibition [2] | Compound | inhibition at 30 µM (Monocyte [1]) [%] | inhibition (Monocyte [3])
1 | No inhibition | CCCCCCCCCCCCCCCCCCOCC(CCc1nnn[nH]1)NC(C)=O (centres undefined) | 75 | 
2 |  | CCCCCCCCCCCCC(=O)NC(COCCC)COP(=O)(O)OCCO (centres undefined) |  | No inhibition
3 |  | CCCCCCCCOC[C@H](COP(=O)(O)OCCN)OP(=O)(O)CCCCCCC |  | No inhibition
